Laboratory results reported in the NIST ThermoML archive (doi:10.1021/je7002918).

Assay: xn = mol fraction of the nth substance listed
Conditions: 298.15 K, 101 kPa, Liquid

CC(C)(C)Cl [2-chloro-2-methylpropane] + Cc1ccc(C)cc1
Conditions | excess molar volume [m3/mol]
x1 = 0.0816 | -1.02e-07
x1 = 0.1212 | -1.48e-07
x1 = 0.1874 | -2.12e-07
x1 = 0.2585 | -2.68e-07
x1 = 0.308 | -3.04e-07
x1 = 0.3746 | -3.32e-07
x1 = 0.4539 | -3.56e-07
x1 = 0.5117 | -3.57e-07
x1 = 0.5918 | -3.44e-07
x1 = 0.6635 | -3.18e-07
x1 = 0.7516 | -2.62e-07
x1 = 0.8683 | -1.56e-07
x1 = 0.9321 | -8.2e-08

CC(C)(C)Cl [2-chloro-2-methylpropane] + Cc1cccc(C)c1
Conditions | excess molar volume [m3/mol]
x1 = 0.0875 | -8.4e-08
x1 = 0.1216 | -1.16e-07
x1 = 0.1973 | -1.76e-07
x1 = 0.2724 | -2.22e-07
x1 = 0.3516 | -2.58e-07
x1 = 0.4307 | -2.84e-07
x1 = 0.4832 | -2.9e-07
x1 = 0.5214 | -2.94e-07
x1 = 0.5768 | -2.86e-07
x1 = 0.658 | -2.66e-07
x1 = 0.7305 | -2.38e-07
x1 = 0.8543 | -1.52e-07
x1 = 0.9112 | -9.8e-08

CC(C)(C)Cl [2-chloro-2-methylpropane] + Cc1ccccc1
Conditions | excess molar volume [m3/mol]
x1 = 0.0932 | -1.14e-07
x1 = 0.1243 | -1.48e-07
x1 = 0.1832 | -2.11e-07
x1 = 0.2556 | -2.75e-07
x1 = 0.3342 | -3.28e-07
x1 = 0.3895 | -3.54e-07
x1 = 0.428 | -3.68e-07
x1 = 0.4952 | -3.81e-07
x1 = 0.5467 | -3.76e-07
x1 = 0.5985 | -3.64e-07
x1 = 0.6356 | -3.53e-07
x1 = 0.6889 | -3.2e-07
x1 = 0.8102 | -2.26e-07
x1 = 0.8961 | -1.3e-07
x1 = 0.9405 | -7.4e-08

CC(C)(C)Cl [2-chloro-2-methylpropane] + Cc1ccccc1C
Conditions | excess molar volume [m3/mol]
x1 = 0.0698 | -1.32e-07
x1 = 0.1023 | -1.86e-07
x1 = 0.1642 | -2.64e-07
x1 = 0.209 | -3.06e-07
x1 = 0.2653 | -3.54e-07
x1 = 0.3321 | -3.88e-07
x1 = 0.4187 | -4.22e-07
x1 = 0.4979 | -4.32e-07
x1 = 0.5984 | -4.28e-07
x1 = 0.6627 | -4.16e-07
x1 = 0.7452 | -3.72e-07
x1 = 0.8056 | -3.22e-07
x1 = 0.9113 | -1.88e-07
x1 = 0.9453 | -1.24e-07

CC(C)(C)Cl [2-chloro-2-methylpropane] + c1ccccc1
Conditions | excess molar volume [m3/mol]
x1 = 0.0821 | -9.4e-08
x1 = 0.1115 | -1.22e-07
x1 = 0.2016 | -1.8e-07
x1 = 0.2989 | -2.31e-07
x1 = 0.314 | -2.4e-07
x1 = 0.3587 | -2.46e-07
x1 = 0.3959 | -2.52e-07
x1 = 0.446 | -2.58e-07
x1 = 0.5551 | -2.45e-07
x1 = 0.6721 | -2.06e-07
x1 = 0.7422 | -1.74e-07
x1 = 0.828 | -1.28e-07
x1 = 0.914 | -6.6e-08

CCC(C)Cl (stereo unspecified) [2-chlorobutane] + Cc1ccc(C)cc1
Conditions | excess molar volume [m3/mol]
x1 = 0.0881 | -6.5e-08
x1 = 0.163 | -1.26e-07
x1 = 0.3481 | -2.26e-07
x1 = 0.4012 | -2.48e-07
x1 = 0.4742 | -2.54e-07
x1 = 0.5001 | -2.58e-07
x1 = 0.5534 | -2.52e-07
x1 = 0.6264 | -2.34e-07
x1 = 0.6784 | -2.06e-07
x1 = 0.738 | -1.75e-07
x1 = 0.7871 | -1.46e-07
x1 = 0.8758 | -8.6e-08
x1 = 0.9179 | -5.2e-08

CCC(C)Cl (stereo unspecified) [2-chlorobutane] + Cc1cccc(C)c1
Conditions | excess molar volume [m3/mol]
x1 = 0.0694 | -5.4e-08
x1 = 0.1004 | -7.8e-08
x1 = 0.139 | -9.4e-08
x1 = 0.2117 | -1.22e-07
x1 = 0.2712 | -1.43e-07
x1 = 0.3438 | -1.5e-07
x1 = 0.4061 | -1.56e-07
x1 = 0.4884 | -1.62e-07
x1 = 0.5442 | -1.62e-07
x1 = 0.601 | -1.56e-07
x1 = 0.7408 | -1.34e-07
x1 = 0.8431 | -1.06e-07
x1 = 0.9249 | -6.2e-08

CCC(C)Cl (stereo unspecified) [2-chlorobutane] + Cc1ccccc1
Conditions | excess molar volume [m3/mol]
x1 = 0.0856 | -6.6e-08
x1 = 0.1276 | -9.6e-08
x1 = 0.2495 | -1.73e-07
x1 = 0.3441 | -2.12e-07
x1 = 0.4723 | -2.32e-07
x1 = 0.5018 | -2.34e-07
x1 = 0.5569 | -2.32e-07
x1 = 0.6025 | -2.21e-07
x1 = 0.6712 | -2.06e-07
x1 = 0.7991 | -1.46e-07
x1 = 0.9046 | -7.2e-08
x1 = 0.9432 | -4.4e-08

CCC(C)Cl (stereo unspecified) [2-chlorobutane] + Cc1ccccc1C
Conditions | excess molar volume [m3/mol]
x1 = 0.0784 | -6.6e-08
x1 = 0.121 | -1.12e-07
x1 = 0.1509 | -1.34e-07
x1 = 0.166 | -1.47e-07
x1 = 0.2243 | -2.01e-07
x1 = 0.314 | -2.62e-07
x1 = 0.3921 | -2.92e-07
x1 = 0.4879 | -3.1e-07
x1 = 0.5552 | -2.95e-07
x1 = 0.669 | -2.46e-07
x1 = 0.7282 | -2.12e-07
x1 = 0.8091 | -1.42e-07
x1 = 0.8816 | -8.6e-08
x1 = 0.9052 | -6.4e-08

CCC(C)Cl (stereo unspecified) [2-chlorobutane] + c1ccccc1
Conditions | excess molar volume [m3/mol]
x1 = 0.0696 | 1e-09
x1 = 0.084 | 2e-09
x1 = 0.1122 | 1e-09
x1 = 0.1524 | 2e-09
x1 = 0.1983 | -2e-09
x1 = 0.2184 | -5e-09
x1 = 0.2744 | -5e-09
x1 = 0.3652 | -1.8e-08
x1 = 0.4665 | -2.6e-08
x1 = 0.5692 | -4.4e-08
x1 = 0.6062 | -4.8e-08
x1 = 0.752 | -5.4e-08
x1 = 0.8041 | -4.6e-08
x1 = 0.8573 | -4e-08
x1 = 0.9032 | -3.5e-08
x1 = 0.9405 | -2.5e-08
